Test system: marine bacteria (26 strains)
Assay: Disk inhibition assay
Assay type: cell-based, marine bacteria isolated from Singapore fouling communities
Settings: for zone of inhibition at 10 µg/disc: 10 μg per disc; for zone of inhibition at 25 µg/disc: 25 μg per disc
Experimental: Preparation of Drugs onto Disks for Assay
The non-antibiotic pharmaceuticals of Table 1 were prepared in the following way. A tablet with a known amount of active ingredient (as stated in the product information) was ground in a mortar and pestle and suspended in sterile deionized water to a concentration of 2 mg ml^−1. These samples were sonicated for at least 1 min. […] The two halves of the capsule were separated and the powder released straight into a bottle and suitable amount of water added to make a concentration of 2 mg ml^−1.
As a comparison to the pharmaceuticals, to determine the susceptibility of the bacterial isolates to conventional antibiotics, commercially available antibiotic discs were used. Antibiotic discs (Oxoid® CT series) containing Ampicillin [Amp] (2 and 10 μg), Erythromycin [Ery] (5 and 15 μg), Streptomycin [Str] (10 and 25 μg) and Tetracycline [Tet] (5 and 30 μg) were placed on lawns of the bacterial strains inoculated as described below.
Sterile swabs dipped into the cultures were used to inoculate Marine Agar plates with a bacterial lawn by smearing the culture over the surface. After inoculating the plates, discs with antibiotics, pharmaceuticals or control blanks were placed on each plate. Each concentration of antibiotic or pharmaceutical was tested with three replicates on three separate occasions. After the disks were placed on the agar surface, plates were incubated overnight in the dark at 30° C. After incubation, plates were examined for zones of inhibition or clearing around control and treated disks. The diameter of any zone of clearing or inhibition was measured using Vernier calipers.
The assay was repeated three times with three replicates for each concentration used, each time.

[H]/N=C(/N)N[C@H]1[C@H](O)[C@@H](O)[C@H](O[C@@H]2O[C@@H](C)[C@](O)(C=O)[C@H]2O[C@@H]2O[C@@H](CO)[C@H](O)[C@@H](O)[C@@H]2NC)[C@@H](N/C(N)=N\[H])[C@@H]1O [Str, streptomycin]
20 to 29 mm: zone of inhibition at 25 µg/disc (strain 1 (Rhodovulum)) | zone of inhibition at 25 µg/disc (strain 11 (Pseudomonas)) | zone of inhibition at 25 µg/disc (strain 22) | zone of inhibition at 25 µg/disc (strain 24) | zone of inhibition at 25 µg/disc (strain 26)
< 6 mm: zone of inhibition at 10 µg/disc (strain 2 (Erythrobacter)) | zone of inhibition at 25 µg/disc (strain 2 (Erythrobacter)) | zone of inhibition at 10 µg/disc (strain 3 (Erythrobacter)) | zone of inhibition at 25 µg/disc (strain 3 (Erythrobacter)) | zone of inhibition at 10 µg/disc (strain 6 (Vibrio)) | zone of inhibition at 10 µg/disc (strain 12 (Gordonia)) | zone of inhibition at 10 µg/disc (strain 14 (Vibrio)) | zone of inhibition at 10 µg/disc (strain 19 (Erythrobacter)) | zone of inhibition at 25 µg/disc (strain 19 (Erythrobacter)) | zone of inhibition at 10 µg/disc (strain 20) | zone of inhibition at 25 µg/disc (strain 20) | zone of inhibition at 10 µg/disc (strain 24) | zone of inhibition at 10 µg/disc (strain 26) | zone of inhibition at 10 µg/disc (strain 27) | zone of inhibition at 25 µg/disc (strain 27)
10 to 19 mm: zone of inhibition at 10 µg/disc (strain 1 (Rhodovulum)) | zone of inhibition at 10 µg/disc (strain 4 (Bacillus)) | zone of inhibition at 25 µg/disc (strain 4 (Bacillus)) | zone of inhibition at 25 µg/disc (strain 6 (Vibrio)) | zone of inhibition at 10 µg/disc (strain 7 (Vibrio)) | zone of inhibition at 25 µg/disc (strain 7 (Vibrio)) | zone of inhibition at 10 µg/disc (strain 8 (Bacillus)) | zone of inhibition at 25 µg/disc (strain 8 (Bacillus)) | zone of inhibition at 10 µg/disc (strain 9 (Bacillus)) | zone of inhibition at 25 µg/disc (strain 9 (Bacillus)) | zone of inhibition at 10 µg/disc (strain 10 (Halobacillus)) | zone of inhibition at 25 µg/disc (strain 10 (Halobacillus)) | zone of inhibition at 10 µg/disc (strain 11 (Pseudomonas)) | zone of inhibition at 25 µg/disc (strain 12 (Gordonia)) | zone of inhibition at 10 µg/disc (strain 13 (Bacillus)) | zone of inhibition at 25 µg/disc (strain 13 (Bacillus)) | zone of inhibition at 25 µg/disc (strain 16 (Pseudoalteromonas)) | zone of inhibition at 10 µg/disc (strain 17 (Gordonia)) | zone of inhibition at 25 µg/disc (strain 17 (Gordonia)) | zone of inhibition at 10 µg/disc (strain 18 (Microbacterium)) | zone of inhibition at 25 µg/disc (strain 18 (Microbacterium)) | zone of inhibition at 10 µg/disc (strain 21) | zone of inhibition at 25 µg/disc (strain 21) | zone of inhibition at 10 µg/disc (strain 28) | zone of inhibition at 25 µg/disc (strain 28) | zone of inhibition at 10 µg/disc (strain 29) | zone of inhibition at 25 µg/disc (strain 29) | zone of inhibition at 10 µg/disc (strain 30) | zone of inhibition at 25 µg/disc (strain 30)
6 to 9 mm: zone of inhibition at 25 µg/disc (strain 14 (Vibrio)) | zone of inhibition at 10 µg/disc (strain 16 (Pseudoalteromonas)) | zone of inhibition at 10 µg/disc (strain 22)
